Like-named read-outs stand apart in the source and are kept apart here.
Key:
[1] = Test Example 3: pharmacokinetic study in cynomolgus monkeys; assay type: in vivo; settings: cynomolgus monkey, plasma, 10 mg/kg single intravenous infusion, individual animals
Procedure: An appropriate amount of a test compound was weighed precisely and added to a container, and 0.9% sodium chloride injection and 0.2 M NaOH solution were added thereto in an ice bath until the test compound was completely dissolved, so that a sample solution at a concentration of 2 mg/mL was obtained followed by storage at 2-8° C. for later use.
Species and strain: cynomolgus monkey Animal grade: general grade Animal source: Guangxi Xiongsen Primate Experimental Animal Breeding Development Co., Ltd. Number of the using of laboratory animal: SYXK (Su) 2019-0012
6 cynomolgus monkeys (half male and half female) were selected and randomly divided into 3 groups with 1 animal/sex in each group. The cynomolgus monkeys were administered with the test sample at a dose of 10 mg/kg by the single intravenous infusion. Blood samples were collected from each group of animals at the following time points: before administration, and 5 min, 15 min, 0.5 h, 1 h, 2 h, 4 h, 6 h, and 8 h after administration. In the test, the concentration of each test compound in the plasma of the cynomolgus monkey was detected by the LC-MS/MS method, and the lower limit of quantification of the analysis methods for the plasma samples were all 1 μg/mL. The plasma concentration data were analyzed by the non-compartmental analysis (NCA) of the analysis software for pharmacokinetic data, WinNonlin, pharmacokinetic parameters were calculated, and pharmacokinetic characteristics of the test compounds in cynomolgus monkeys after administration were investigated, with the results shown in the following table

[2] = system: Control strain Escherichia coli ATCC 25922; assay: Test Example 2: antibacterial activity test (MIC); assay type: cell-based; settings: ATCC25922, ID-CAMHB, ATCC 25922, read-out: ID-CAMHB, MIC
Procedure: (§1) 1. The test compounds were dissolved in sterile normal saline, vortexed for uniformly mixing, and diluted in a 2-fold dilution with the sterile normal saline (11 concentration points in total). The test concentration range was 32-0.031 μg/mL, and two duplicate wells were set for each concentration. Additional wells without drug dosing were set as growth controls. 2. 4 μL of the diluent was added to 196 μL of the bacterial suspension in a 96-well plate (the bacterial count in the bacterial suspension was 2-8×10^5 colony forming units/mL). 3.
(§2) The minimum inhibitory concentration (MIC) assay was performed with reference to the Clinical and Laboratory Standards Institute (CLSI) guidelines.

[3] = system: Carbapenem-resistant Enterobacteriaceae (CRE, Klebsiella pneumoniae); assay: Test Example 2: antibacterial activity test (MIC); assay type: cell-based; settings: ID-CAMHB, read-out: ID-CAMHB, MIC
Procedure: as §1, §2

[4] = system: Carbapenem-resistant Pseudomonas aeruginosa (CRPA, Pseudomonas aeruginosa); assay: Test Example 2: antibacterial activity test (MIC); assay type: cell-based; settings: ID-CAMHB, read-out: ID-CAMHB, MIC
Procedure: as §1, §2

[5] = system: Control Strain Pseudomonas aeruginosa ATCC 27853; assay: Test Example 2: antibacterial activity test (MIC); assay type: cell-based; settings: ATCC27853, ID-CAMHB, ATCC 27853, read-out: ID-CAMHB, MIC
Procedure: as §1, §2

[6] = system: Carbapenem-resistant Acinetobacter baumannii (CRAB, Acinetobacter baumannii); assay: Test Example 2: antibacterial activity test (MIC); assay type: cell-based; settings: ID-CAMHB, read-out: ID-CAMHB, MIC
Procedure: as §1, §2

[7] = both sexes, cynomolgus, iv, 10 mg/kg

For CC(C)(O/N=C(\C(=O)N[C@@H]1C(=O)N2C(C(=O)O)=C(C[N+]3(CCN(CCCNC(=O)c4ccc(O)c(O)c4Cl)C(=O)c4ccc(O)c(O)c4Cl)CCCC3)CS[C@H]12)c1csc(N)n1)C(=O)O [Compound 10], the AUC(0-inf) [1, 7] was 32900 ng·h/mL, the AUC(0-t) [1, 7] was 29300 ng·h/mL and the clearance [1, 7] was 5.06 mL/min/kg. The half-life [1, 7] was 37.2 min, the Cmax ([1]; both sexes, cynomolgus, iv, 10 mg/kg, read-out: Cmax) was 35500 ng/mL and the MRT ([1]; both sexes, cynomolgus, iv, 10 mg/kg, read-out: MRT) was 38.4 min. The Vd ([1]; both sexes, cynomolgus, iv, 10 mg/kg, read-out: Vd) was 0.27 L/kg, the Tmax ([1]; both sexes) was 4.8 min and the AUC last ([1]; 10 mg/kg) was 23440 ng·h/mL. It also gave an AUCinf ([1]; 10 mg/kg) of 25640 ng·h/mL, a CL ([1]; 10 mg/kg) of 6.5002 mL/min/kg and a Cmax ([1]; 10 mg/kg) of 30640 ng/mL. The MRT ([1]; 10 mg/kg) was 37.2 min, the Vd ([1]; 10 mg/kg) was 0.31334 L/kg and the t1/2 ([1]; 10 mg/kg) was 33.6 min. For the same molecule, the MIC [2] was 0.0625 µg/mL, the MIC ([3]; FDA-CDC AR-BANK #0361 (TEM-1; SHV-12; KPC-2)) was 0.25 µg/mL and the MIC ([3]; FDA-CDC AR-BANK #0363 (TEM-1; SHV-12; KPC-2)) was 0.125 µg/mL. For the same molecule, the MIC ([3]; FDA-CDC AR-BANK #0438 (aph(3′)-Ia, dfrA12, KPC-3, OmpK35, oqxA, oqxB, SHV-11)) was 0.5 µg/mL, the MIC ([3]; FDA-CDC AR-BANK #0453 (KPC-3, OmpK35, oqxA, oqxB, SHV-11, TEM-1B)) was 2 µg/mL and the MIC ([4]; FDA-CDC AR-BANK #0439 (aac(6′)-Il, aadA1b, BCR1, IMP-18, OXA-50)) was 0.25 µg/mL. The MIC ([4]; FDA-CDC AR-BANK #0441 (KPC-2)) was 1 µg/mL, the MIC ([4]; FDA-CDC AR-BANK #0444 (aac(6′)-Il, dfrB5, OXA-4, tet(G), VIM-2)) was 16 µg/mL and the MIC ([4]; FDA-CDC AR-BANK #0457 (aadA6, VIM-2)) was 0.0625 µg/mL. It also gave an MIC [5] of 0.0625 µg/mL, an MIC ([6]; FDA-CDC AR-BANK #0036 (strB, OXA-65, OXA-24, strA, sul2)) of 0.125 µg/mL and an MIC ([6]; FDA-CDC AR-BANK #0052 (OXA-58, OXA-100, sul2)) of 0.0625 µg/mL. For the same molecule, the MIC ([6]; FDA-CDC AR-BANK #0063 (OXA-23, OXA-65, OXA-24, sul2)) was over 32 µg/mL, the MIC ([6]; FDA-CDC AR-BANK #0070 (OXA-58, OXA-100, sul2)) was 0.125 µg/mL and the MIC ([6]; FDA-CDC AR-BANK #0101 (strB, OXA-65, OXA-24, strA, sul2)) was 0.5 µg/mL.

Source: US20230121689A1, “CEPHALOSPORIN ANTIBACTERIAL COMPOUND AND PHARMACEUTICAL APPLICATION THEREOF” (priority 2020, published 2023)
